Consider 19 compounds from patent US5707798A, “Identification of ligands by selective amplification of cells transfected with receptors” (priority 1994, dated 1998).

Assay [1] relates to NIH 3T3 cells. The experiment in a line: Amplification response in the absence of the indicated target receptor. It is filed as cell-based, mouse. The settings on record: absence of the ligand's target receptor. The method, then:
FIG. 16 illustrates the maximal ligand-induced responses of the indicated receptors, as assayed using cotransfected cultures using a Multiple Receptor Format similar to that described in FIG. 11. […] Cells were incubated in wells of a 96 well plate for 4 days with each ligand. Maximal responses were calculated by fitting the data to a model of a single mass-action site.

Assay [2] concerns the target T1, m2 muscarinic receptor (Homo sapiens, UniProt P08172).
T1 construct: expressed in transfected cells; host or cells: NIH 3T3 (mouse fibroblasts)
T1 sequence (P08172 1-466): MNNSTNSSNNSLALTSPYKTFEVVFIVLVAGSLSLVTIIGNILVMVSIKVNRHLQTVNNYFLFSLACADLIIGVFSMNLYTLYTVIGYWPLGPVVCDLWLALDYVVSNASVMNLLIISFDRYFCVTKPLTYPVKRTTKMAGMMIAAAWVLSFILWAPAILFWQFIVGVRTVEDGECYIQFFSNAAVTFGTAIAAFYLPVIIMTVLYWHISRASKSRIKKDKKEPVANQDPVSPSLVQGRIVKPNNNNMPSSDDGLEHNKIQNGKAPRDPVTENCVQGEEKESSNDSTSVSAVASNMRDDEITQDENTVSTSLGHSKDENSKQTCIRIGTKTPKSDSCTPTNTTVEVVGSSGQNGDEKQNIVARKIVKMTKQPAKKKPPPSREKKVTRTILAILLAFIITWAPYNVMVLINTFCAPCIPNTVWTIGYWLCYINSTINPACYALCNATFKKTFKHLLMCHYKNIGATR
Briefly: cell-based. It is filed as cell-based.

The target in assay [3] is T2, m5 muscarinic receptor (Homo sapiens, UniProt P08912).
T2 construct: expressed in transfected cells; host or cells: NIH 3T3 (mouse fibroblasts)
T2 sequence (P08912 1-532): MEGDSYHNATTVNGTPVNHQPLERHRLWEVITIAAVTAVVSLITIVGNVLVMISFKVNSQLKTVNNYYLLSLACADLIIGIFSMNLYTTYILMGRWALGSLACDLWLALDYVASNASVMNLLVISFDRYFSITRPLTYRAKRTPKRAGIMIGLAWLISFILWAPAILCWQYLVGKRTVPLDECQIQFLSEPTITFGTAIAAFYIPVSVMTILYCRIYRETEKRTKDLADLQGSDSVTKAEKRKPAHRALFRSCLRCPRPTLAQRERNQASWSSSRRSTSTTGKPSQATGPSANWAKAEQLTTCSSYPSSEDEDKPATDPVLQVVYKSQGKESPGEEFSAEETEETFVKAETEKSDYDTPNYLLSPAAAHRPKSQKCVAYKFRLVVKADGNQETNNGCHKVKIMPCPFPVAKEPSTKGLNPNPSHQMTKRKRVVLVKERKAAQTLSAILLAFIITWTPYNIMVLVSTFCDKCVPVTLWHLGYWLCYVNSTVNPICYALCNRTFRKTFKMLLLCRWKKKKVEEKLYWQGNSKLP
It is filed as cell-based. The settings on record: for Emax: read-out: % Max.

The target in assay [4] is T3, m4 muscarinic receptor (Homo sapiens, UniProt P08173).
T3 sequence (P08173 1-479): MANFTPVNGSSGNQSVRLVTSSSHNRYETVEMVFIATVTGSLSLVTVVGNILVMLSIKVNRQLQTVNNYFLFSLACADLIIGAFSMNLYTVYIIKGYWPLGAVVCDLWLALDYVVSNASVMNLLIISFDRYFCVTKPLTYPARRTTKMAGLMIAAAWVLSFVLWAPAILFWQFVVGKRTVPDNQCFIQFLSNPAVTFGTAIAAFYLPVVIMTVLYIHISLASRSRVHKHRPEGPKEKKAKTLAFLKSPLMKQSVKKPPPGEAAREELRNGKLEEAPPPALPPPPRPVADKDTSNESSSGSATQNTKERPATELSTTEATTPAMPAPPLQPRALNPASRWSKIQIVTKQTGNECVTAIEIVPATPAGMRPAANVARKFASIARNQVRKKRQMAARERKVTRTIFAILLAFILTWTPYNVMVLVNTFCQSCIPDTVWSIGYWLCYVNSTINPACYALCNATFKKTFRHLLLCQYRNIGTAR

The target of assay [5] is T3, m4 muscarinic receptor. The experiment in a line: cell-based. The settings on record: read-out: % Max.
The target of assay [6] is T4, m1 muscarinic receptor (Homo sapiens, UniProt P11229).
T4 sequence (P11229 1-460): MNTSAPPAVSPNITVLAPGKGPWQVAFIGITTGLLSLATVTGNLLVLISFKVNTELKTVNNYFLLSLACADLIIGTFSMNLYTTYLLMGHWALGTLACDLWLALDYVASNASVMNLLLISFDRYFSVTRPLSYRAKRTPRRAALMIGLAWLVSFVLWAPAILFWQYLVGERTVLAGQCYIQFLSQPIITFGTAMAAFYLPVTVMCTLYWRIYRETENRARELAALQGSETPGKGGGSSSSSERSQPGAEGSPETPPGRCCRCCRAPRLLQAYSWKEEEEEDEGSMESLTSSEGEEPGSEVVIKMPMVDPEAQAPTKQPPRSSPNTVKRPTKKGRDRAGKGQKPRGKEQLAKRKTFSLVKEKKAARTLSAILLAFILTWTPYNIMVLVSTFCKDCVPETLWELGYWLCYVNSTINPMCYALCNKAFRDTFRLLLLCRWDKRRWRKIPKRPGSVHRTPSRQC
The experiment in a line: cell-based. Format: cell-based. On the set-up: expressed in transfected cells; host or cells: NIH 3T3 (mouse fibroblasts). Conditions: for Emax: read-out: % Max.

For assay [7], the target named is T5, m3 muscarinic receptor (Homo sapiens, UniProt P20309). The experiment in a line: cell-based. On the set-up: expressed in transfected cells; host or cells: NIH 3T3 (mouse fibroblasts). Conditions: for Emax: read-out: % Max.
Assay [8] deals with Insulin receptor. Format: cell-based.
The target of assay [9] is T6, alpha 2 C4 adrenergic receptor (Homo sapiens, UniProt P18825).
T6 construct: expressed in transfected cells; host or cells: NIH 3T3 (mouse fibroblasts)
T6 sequence (P18825 1-462): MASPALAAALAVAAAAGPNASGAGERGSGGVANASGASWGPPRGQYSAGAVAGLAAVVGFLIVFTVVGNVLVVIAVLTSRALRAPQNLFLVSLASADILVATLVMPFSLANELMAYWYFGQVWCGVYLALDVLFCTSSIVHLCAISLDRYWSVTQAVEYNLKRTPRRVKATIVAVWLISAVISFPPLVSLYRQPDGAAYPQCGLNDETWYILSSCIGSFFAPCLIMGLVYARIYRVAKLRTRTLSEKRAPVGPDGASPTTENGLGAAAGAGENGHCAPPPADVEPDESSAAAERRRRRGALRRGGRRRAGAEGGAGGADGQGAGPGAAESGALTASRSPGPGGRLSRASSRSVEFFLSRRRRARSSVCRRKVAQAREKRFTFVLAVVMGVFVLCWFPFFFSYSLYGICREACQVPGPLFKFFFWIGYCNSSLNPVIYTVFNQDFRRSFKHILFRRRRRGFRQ
It is filed as cell-based. Conditions: α2-C4, Table 3; relative to other ligands at the receptor.

The target of assay [10] is T7, alpha 2 C2 adrenergic receptor (Homo sapiens, UniProt P18089).
T7 sequence (P18089 1-450): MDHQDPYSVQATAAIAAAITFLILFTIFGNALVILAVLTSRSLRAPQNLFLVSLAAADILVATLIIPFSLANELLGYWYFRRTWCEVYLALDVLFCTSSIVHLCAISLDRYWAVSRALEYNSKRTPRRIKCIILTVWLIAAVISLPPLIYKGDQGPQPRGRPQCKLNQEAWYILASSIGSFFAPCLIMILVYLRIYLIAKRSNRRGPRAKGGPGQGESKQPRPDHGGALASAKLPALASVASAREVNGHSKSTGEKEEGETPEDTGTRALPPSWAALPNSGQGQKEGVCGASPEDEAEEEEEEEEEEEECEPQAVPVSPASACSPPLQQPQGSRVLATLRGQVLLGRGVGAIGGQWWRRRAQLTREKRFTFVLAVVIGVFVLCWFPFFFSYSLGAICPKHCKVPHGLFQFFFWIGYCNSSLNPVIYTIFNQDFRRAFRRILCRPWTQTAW
It is filed as cell-based.

For assay [11], the target named is T2, m5 muscarinic receptor. It is filed as cell-based. The settings on record: read-out: negative log Ki (converted).
In assay [12] the target is T4, m1 muscarinic receptor. Briefly: cell-based.
For assay [13], the target named is T5, m3 muscarinic receptor. The experiment in a line: cell-based.
The target of assay [14] is T3, m4 muscarinic receptor. The experiment in a line: cell-based.
The test system of assay [15] is Glutamate metabatropic receptor. It is filed as cell-based.

Read-outs that look alike come from different tables or passages of the source. Ends that are not written are not given here.

T5 sequence (P20309 whole entry): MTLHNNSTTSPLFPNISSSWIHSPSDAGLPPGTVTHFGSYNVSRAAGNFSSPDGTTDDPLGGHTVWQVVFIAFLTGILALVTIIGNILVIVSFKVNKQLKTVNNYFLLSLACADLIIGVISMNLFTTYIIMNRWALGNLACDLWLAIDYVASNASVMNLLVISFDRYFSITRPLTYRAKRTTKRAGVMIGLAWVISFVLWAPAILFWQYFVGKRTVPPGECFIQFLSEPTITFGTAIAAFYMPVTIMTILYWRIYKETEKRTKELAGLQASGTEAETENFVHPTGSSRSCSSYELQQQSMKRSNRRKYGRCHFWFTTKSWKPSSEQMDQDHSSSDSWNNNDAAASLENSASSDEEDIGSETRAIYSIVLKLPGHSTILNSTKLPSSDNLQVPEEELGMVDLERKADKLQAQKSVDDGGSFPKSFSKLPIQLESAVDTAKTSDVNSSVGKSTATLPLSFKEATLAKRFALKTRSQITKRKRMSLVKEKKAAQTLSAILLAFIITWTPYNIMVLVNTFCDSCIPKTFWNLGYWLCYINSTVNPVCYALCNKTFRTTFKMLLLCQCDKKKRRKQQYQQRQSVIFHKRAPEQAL

As for `O=C(O)CCC/C=C\C[C@@H]1[C@@H](/C=C/[C@@H](O)COc2cccc(C(F)(F)F)c2)[C@H](O)C[C@@H]1O` (racemic) [Fluprostenol], the induction of responses result in [1] is recorded as “unable to induce responses”.
One may read the EC50 as the concentration that produces a half-maximal response. In the case of `O=C1CCCN1CC#CCN1CCCC1` [oxotremorine], the Emax in assay [2] (read-out: % Max) is 100 ± 5%; in assay [3], 74 ± 2%; in assay [5], 102 ± 3%; in assay [6], 75 ± 10%; in assay [7], 66 ± 5%. Moreover, the EC50 was 19 ± 10 nM in assay [2] (read-out: EC50); 19 ± 10 nM in assay [2] (read-out: Ligand EC50); 55 ± 1 nM in assay [3] (m5, Table 1A, read-out: EC50); 55 ± 1 nM in [3] (m5, Table 2, read-out: Ligand EC50); 33 ± 14 nM in assay [4]; 33 ± 14 nM in [4] (read-out: Ligand EC50). Also, the EC50 in [6] (read-out: EC50) is 390 ± 130 nM; in assay [6] (read-out: Ligand EC50), 390 ± 130 nM; in [7] (read-out: EC50), 210 ± 60 nM; in assay [7] (read-out: Ligand EC50), 210 ± 60 nM.
Turning to “substance P (RPKPQQFFGLM; ends and bridges not checked; UniProt P20366 58-68, looked up)”, the induction of responses result in assay [1] was “unable to induce responses”.
With Insulin, the concentration giving a half-maximal response (EC50) in [8] (Table 2, read-out: Ligand EC50) stood at 0.08 ± 0.08 nM. For the same compound, the Rmax result in assay [8] (relative to other clones) is listed as “+”.
For `Cc1cc(C(C)(C)C)c(O)c(C)c1CC1=NCCN1` [Oxymetazoline], the “Max Response” value in assay [9] was “+”.
On to `Nc1cc(Cl)c(NC2=NCCN2)c(Cl)c1` [p-NH2-Clonidine], for which, in [10] (α2-C2, Table 3, relative to other ligands at the receptor), the “Max Response” value is given as “+”.
What is called Ki is a measure of affinity in units of concentration, obtained from inhibition or displacement. As to `COc1ccccc1CNCCCCCCNCCCCCCCCNCCCCCCNCc1ccccc1OC` [methocrtramine], the Ki in assay [11] was over 1000 nM; in assay [12] it was 501 nM; in assay [13] it was over 1000 nM; in [14] it was 398 nM.
With `C[N+](C)(C)CC#CCOC(=O)Nc1cccc(Cl)c1` [McN A-434], the EC50 was found to be 1500 ± 600 nM in assay [2] (m2 + Gq-i5, Table 1A, read-out: EC50) and 1100 ± 200 nM in [6] (m1, Table 1A, read-out: EC50). The “% Max” value in [2] (nih 3t3 cells) was determined as 108 ± 7%; in assay [6] (nih 3t3 cells), 43 ± 2%.
In the case of `Brc1c(NC2=NCCN2)ccc2nccnc12` [UK 14,304], the “Max Response” value in [9] is “+”.
Still for that read-out and setting: for `CNC[C@H](O)c1ccc(O)c(O)c1` [Epinephrine] the value was “+”.
`C[C@@H]1O[C@H](C[N+](C)(C)C)C[C@H]1O` [muscarine]: the Emax in [3] was determined as 86%; in assay [5], 69 ± 2%; in assay [6] it was 84 ± 4%; in assay [7] it was 84 ± 6%.
For `Clc1cc(I)cc(Cl)c1NC1=NCCN1` [p-I-Clonidine], the “Max Response” value in assay [10] is “+”.
For the compound `COc1nc(C)nc(Cl)c1N=C1NCCN1` [Moxonidine], in assay [9], the “Max Response” value was “+”.
`Cc1cccc([C@H](C)c2cnc[nH]2)c1C` [Dexmedetomidine]: a half-maximal response in [10] (EC50) required 2 nM.
As for `C1COC(NC(C2CC2)C2CC2)=N1` [Rilmenidine], the “Max Response” value in [9] is listed as “+”.
For the compound `C[N+]1(C)CCC(OC(=O)C(c2ccccc2)c2ccccc2)CC1` [4-DAMP], the Ki was 1 nM in assay [11] and 2.51 nM in [12].
In the case of `N[C@@H](Cn1oc(=O)[nH]c1=O)C(=O)O` [Quisqualate], the EC50 in [15] (Table 2, read-out: Ligand EC50) was determined as 2400 nM. For the same compound, in assay [15] (relative to other clones), the Rmax entry is recorded as “+”.
Take `CNC[C@H](O)c1cccc(O)c1` [phenylephrine]: the induction of responses entry in assay [1] is reported as “unable to induce responses”.
On the same count and under the same terms, for endothelin-3 [ET-3] the value was “unable to induce responses”.
